The target of this assay is T1, soluble guanylate cyclase (sGC) (Homo sapiens, UniProt Q02108+Q02153).
T1 construct: endogenously expressing soluble guanylate cyclase (sGC); endogenous in cells; host or cells: HEK293
T1 sequence (Q02153 1-619): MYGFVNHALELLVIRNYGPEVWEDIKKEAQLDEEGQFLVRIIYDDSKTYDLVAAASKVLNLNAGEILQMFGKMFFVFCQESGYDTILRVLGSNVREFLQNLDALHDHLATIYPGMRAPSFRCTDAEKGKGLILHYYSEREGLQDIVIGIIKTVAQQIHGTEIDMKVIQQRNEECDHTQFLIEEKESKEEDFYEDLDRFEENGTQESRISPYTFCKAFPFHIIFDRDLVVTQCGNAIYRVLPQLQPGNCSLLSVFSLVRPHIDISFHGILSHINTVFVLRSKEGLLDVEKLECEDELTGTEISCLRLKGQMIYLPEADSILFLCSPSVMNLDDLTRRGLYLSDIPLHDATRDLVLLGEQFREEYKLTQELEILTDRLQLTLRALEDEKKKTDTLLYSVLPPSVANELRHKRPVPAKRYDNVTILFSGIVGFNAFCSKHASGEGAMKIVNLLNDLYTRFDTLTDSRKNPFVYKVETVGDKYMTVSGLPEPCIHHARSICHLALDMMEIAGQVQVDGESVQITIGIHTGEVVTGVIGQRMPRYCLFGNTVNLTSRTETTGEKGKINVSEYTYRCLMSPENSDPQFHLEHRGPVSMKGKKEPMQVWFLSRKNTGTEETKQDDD
T1 sequence (Q02108 1-690): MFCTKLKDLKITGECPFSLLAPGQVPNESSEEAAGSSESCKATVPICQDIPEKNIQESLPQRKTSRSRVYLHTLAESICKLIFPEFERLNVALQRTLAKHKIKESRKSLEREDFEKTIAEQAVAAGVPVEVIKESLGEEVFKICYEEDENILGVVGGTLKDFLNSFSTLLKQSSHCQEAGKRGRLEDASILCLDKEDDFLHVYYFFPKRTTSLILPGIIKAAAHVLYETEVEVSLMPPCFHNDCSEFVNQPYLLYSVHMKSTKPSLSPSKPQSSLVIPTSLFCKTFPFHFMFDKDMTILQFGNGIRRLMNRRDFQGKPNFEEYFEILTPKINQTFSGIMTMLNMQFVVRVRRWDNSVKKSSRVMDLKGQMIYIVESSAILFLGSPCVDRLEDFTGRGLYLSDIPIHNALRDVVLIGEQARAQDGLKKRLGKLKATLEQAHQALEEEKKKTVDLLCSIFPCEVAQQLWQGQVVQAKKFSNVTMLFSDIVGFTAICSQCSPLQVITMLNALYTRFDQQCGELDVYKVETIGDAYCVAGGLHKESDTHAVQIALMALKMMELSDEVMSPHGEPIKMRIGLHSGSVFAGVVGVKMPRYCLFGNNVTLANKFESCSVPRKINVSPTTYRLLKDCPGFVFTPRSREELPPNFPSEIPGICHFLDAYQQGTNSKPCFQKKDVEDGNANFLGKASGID
In words: sGC-HEK-cGMP assay. Conditions: HEK293 cells, 10 μM SNP, percentage of sGC activity obtained with positive control BAY 41-2272 (= 100%); for Emax at 10 µM: compound at 10 μM; for Emax at 30 µM: compound at 30 μM. It is filed as cell-based. In a few lines: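 HEK293 cells endogenously expressing sGC, preincubated 15 min at 37 °C with 0.5 mM IBMX, then exposed to compound plus 10 μM sodium nitroprusside for 10 min at 37 °C. Reaction stopped and cells lysed with 0.1 M HCl; cGMP quantified by LC/MS against a standard curve; EC50 from concentration-response curves.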

The values that follow come from patent US9061030B2, “sGC stimulators” (IRONWOOD PHARMACEUTICALS, INC., priority 2010, dated 2015).

Usually Emax stands for the size of the effect at its maximum, as opposed to the concentration needed. `Fc1ccccc1Cn1nc(-c2ncccn2)nc1-c1cocn1` [Compound I-46] showed a maximum response (Emax) at 10 µM of 20 to 40% and an Emax at 30 µM of 20 to 40%.
The compound `Fc1ccccc1Cn1nc(-c2ccccn2)nc1-c1ccccn1` [Compound I-1] returned an Emax at 10 µM of 5 to 10% and an Emax at 30 µM of 20 to 40%.
For `Fc1ccccc1Cn1nc(-c2ccccn2)nc1-c1cscn1` [Compound I-4] the same measures were 20 to 40% and 40 to 60%.
`COC(=O)N(C)c1c(N)nc(-c2nc(-c3nccs3)n(Cc3ccccc3F)n2)nc1N` [Compound I-61, methyl 4,6-diamino-2-(1-(2-fluorobenzyl)-5-(thiazol-2-yl)-1H-1,2,4-triazol-3-yl)pyrimidin-5-yl(methyl)carbamate] displayed an Emax at 10 µM of 20 to 40% and an Emax at 30 µM of 40 to 60%.
`Fc1ccccc1Cn1nc(-c2ccccn2)nc1-c1cocn1` [Compound I-12, 4-(1-(2-fluorobenzyl)-3-(pyridin-2-yl)-1H-1,2,4-triazol-5-yl)oxazole] returned a maximal response (Emax) at 10 µM of 20 to 40% and a maximal effect (Emax) at 30 µM of 40 to 60%.
For `Nc1ccnc(-c2nc(-c3nccs3)n(Cc3ccccc3F)n2)c1` [Compound I-44] the same measures were 40 to 60% and 60 to 80%.
The matching figures for `Fc1ccccc1Cn1nc(-c2ncccn2)nc1-c1cscn1` [Compound I-3]: 0 to 5% and 20 to 40%.
The matching figures for `Fc1ccccc1Cn1nc(-c2ncccn2)nc1-c1nccs1` [Compound I-30]: 10 to 20% and 20 to 40%.
Consider `Nc1ccnc(-c2nc(-c3cscn3)n(Cc3ccccc3F)n2)c1` [Compound I-53, 2-(1-(2-fluorobenzyl)-5-(thiazol-4-yl)-1H-1,2,4-triazol-3-yl)pyridin-4-amine], for which the Emax at 10 µM is 40 to 60% and the Emax at 30 µM lay within 60 to 80%.
The matching figures for `Fc1ccccc1Cn1nc(-c2ccccn2)nc1-n1cncn1` [Compound I-50, 2′-(2-fluorobenzyl)-5′-(pyridin-2-yl)-2′H-1,3′-bi(1′,2′,4-triazole)]: 20 to 40% and 20 to 40%.
With `Fc1ccccc1Cn1nc(-c2ccccn2)nc1-c1nccs1` [Compound I-25], the Emax at 10 µM lay within 20 to 40% and the maximal effect (Emax) at 30 µM was in the range of 40 to 60%.
Consider `Fc1ccccc1Cn1nc(-c2nccs2)nc1-c1cscn1` [Compound I-41], for which the Emax at 10 µM was 40 to 60% and the Emax at 30 µM lay in the range of 60 to 80%.
For `Fc1ccccc1Cn1nc(-c2ccccn2)nc1-c1ncco1` [Compound I-6] the same measures were 20 to 40% and 20 to 40%.
For `Nc1ccnc(-c2nc(-c3nccs3)n(Cc3ccccc3F)n2)n1` [Compound I-48, 2-(1-(2-fluorobenzyl)-5-(thiazol-2-yl)-1H-1,2,4-triazol-3-yl)pyrimidin-4-amine] the same measures were 40 to 60% and 60 to 80%.
Regarding `Fc1ccc(-c2nc(-c3nccs3)n(Cc3ccccc3F)n2)nc1` [Compound I-38], the maximum response (Emax) at 10 µM was in the range of 40 to 60% and the maximum response (Emax) at 30 µM fell in the range of 20 to 40%.
The compound `Fc1ccccc1Cn1nc(-c2cscn2)nc1-c1nccs1` [Compound I-40] displayed an Emax at 10 µM of 20 to 40% and a maximal effect (Emax) at 30 µM of 10 to 20%.
